According to PubChem BioAssay AID264 (DTP/NCI, 2004):
Where “and” joins values, the source holds several entries; their conditions need not be identical. Identical values can stand only once. Records with an inconclusive call do not appear.

System: nude mice, LX-1 lung xenograft intrarenal, tumor weight T/C
Assay: NCI In Vivo Anticancer Drug Screen. Data for tumor model Human Lung LX-1 Xenograft (intrarenal inoculation) in NU/NU Swiss (nude) mice
Conditions: endpoint: mean tumor weight change, higher = larger tumour
Method in brief: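 Readout: T/C, i.e. treated-group tumor measurement over vehicle-control measurement. Mice bearing transplantable tumors were dosed with compound or vehicle.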

[1] = dose: 75.0 mg/kg/injection, schedule: Q04DX003 (sc), vehicle: Klucel (hydroxypropylcellulose) (HPC)
[2] = dose: 150.0 mg/kg/injection, schedule: Q04DX003 (sc), vehicle: Klucel (hydroxypropylcellulose) (HPC)
[3] = dose: 300.0 mg/kg/injection, schedule: Q04DX003 (sc), vehicle: Klucel (hydroxypropylcellulose) (HPC)
[4] = dose: 600.0 mg/kg/injection, schedule: Q04DX003 (sc), vehicle: Klucel (hydroxypropylcellulose) (HPC)
[5] = dose: 300.0 mg/kg/injection, schedule: Q04DX003 (sc), vehicle: suspension in saline
[6] = dose: 600.0 mg/kg/injection, schedule: Q04DX003 (sc), vehicle: suspension in saline
[7] = dose: 1200.0 mg/kg/injection, schedule: Q04DX003 (sc), vehicle: suspension in saline
[8] = dose: 2400.0 mg/kg/injection, schedule: Q04DX003 (sc), vehicle: suspension in saline
[9] = dose: 200.0 mg/kg/injection, schedule: Q04DX003 (sc), vehicle: saline
[10] = dose: 1200.0 mg/kg/injection, schedule: Q04DX003 (sc), vehicle: Klucel (hydroxypropylcellulose) (HPC)
[11] = dose: 2400.0 mg/kg/injection, schedule: Q04DX003 (sc), vehicle: Klucel (hydroxypropylcellulose) (HPC)

## Cc1ccc(NCCN(C)C)c2c(=O)c3cc(O)ccc3sc12
[1]
  T/C: 97 % of control
[2]
  T/C: 68 % of control
[3]
  T/C: 72 % of control
[4]
  T/C: 84 % of control

## N=c1nc2n(cc1F)[C@@H]1O[C@H](CO)[C@@H](O)[C@@H]1O2
[5]
  T/C: 102 % of control
[6]
  T/C: 57 % of control
[7]
  T/C: 80 % of control
[8]
  T/C: 87 % of control

## O=[Te]=O
dose: 12.5 mg/kg/injection, schedule: Q04DX003 (sc), vehicle: suspension in saline
  T/C: 150 % of control

## O=NN(CCCl)C(=O)NCCCl
dose: 4.0 mg/kg/injection, schedule: Q01DX010 (sc), vehicle: saline
  T/C: 44 % of control and 51 % of control and 65 % of control
dose: 7.5 mg/kg/injection, schedule: Q04DX003 (sc), vehicle: suspension in saline
  T/C: 90 % of control
dose: 8.0 mg/kg/injection, schedule: Q01DX010 (sc), vehicle: saline
  T/C: 16 % of control and 17 % of control
dose: 13.33 mg/kg/injection, schedule: Q04DX003 (sc), vehicle: saline
  T/C: 9 % of control
dose: 15.0 mg/kg/injection, schedule: Q04DX003 (sc), vehicle: suspension in saline
  T/C: 31 % of control
dose: 16.0 mg/kg/injection, schedule: Q01DX010 (sc), vehicle: saline
  T/C: -75 % of control and -72 % of control and -67 % of control
dose: 26.65 mg/kg/injection, schedule: Q04DX003 (sc), vehicle: saline
  T/C: -32 % of control
dose: 30.0 mg/kg/injection, schedule: Q04DX003 (sc), vehicle: suspension in saline
  T/C: 1 % of control
dose: 32.0 mg/kg/injection, schedule: Q01DX010 (sc), vehicle: saline
  T/C: -9 % of control and -3 % of control
dose: 53.3 mg/kg/injection, schedule: Q04DX003 (sc), vehicle: saline
  T/C: -84 % of control
dose: 60.0 mg/kg/injection, schedule: Q04DX003 (sc), vehicle: suspension in saline
  T/C: 16 % of control

## O=NN(CCCl)C(=O)NCCO
dose: 3.12 mg/kg/injection, schedule: Q04DX003 (sc), vehicle: water
  T/C: 49 % of control and 65 % of control

## C=C(C)C(=O)OC1C/C(CO)=C\C(O)C/C(C)=C/C2OC(=O)C(=C)C21 (centres undefined)
dose: 20.0 mg/kg/injection, schedule: Q04DX003 (sc), vehicle: saline + alcohol
  T/C: 96 % of control
dose: 40.0 mg/kg/injection, schedule: Q04DX003 (sc), vehicle: saline + alcohol
  T/C: 119 % of control
dose: 80.0 mg/kg/injection, schedule: Q04DX003 (sc), vehicle: saline + alcohol
  T/C: 104 % of control
dose: 160.0 mg/kg/injection, schedule: Q04DX003 (sc), vehicle: saline + alcohol
  T/C: 107 % of control

## Brc1c(NC2=NCCN2)ccc2nccnc12
dose: 25.0 mg/kg/injection, schedule: Q04DX003 (sc), vehicle: saline
  T/C: 75 % of control
dose: 50.0 mg/kg/injection, schedule: Q04DX003 (sc), vehicle: saline
  T/C: 55 % of control
dose: 100.0 mg/kg/injection, schedule: Q04DX003 (sc), vehicle: saline
  T/C: 79 % of control
[9]
  T/C: 69 % of control

## Oc1c(Cl)cc(C(c2cc(Cl)c(O)c(Cl)c2)C(c2cc(Cl)c(O)c(Cl)c2)c2cc(Cl)c(O)c(Cl)c2)cc1Cl
[3]
  T/C: 88 % of control
[4]
  T/C: 66 % of control
[10]
  T/C: 55 % of control
[11]
  T/C: 66 % of control

## O=C1C=CN(C2OC(CO)C(O)C2O)C(=O)C1 (centres undefined)
dose: 50.0 mg/kg/injection, schedule: Q01DX010 (sc), vehicle: saline
  T/C: 65 % of control
dose: 100.0 mg/kg/injection, schedule: Q01DX010 (sc), vehicle: saline
  T/C: 21 % of control

## Clc1ccc(C2SC=Cc3ccccc32)cc1 (centres undefined)
[3]
  T/C: 64 % of control
[4]
  T/C: 47 % of control
[10]
  T/C: 106 % of control

## COc1ccc(C(N)=O)cc1N=NN(C)C
dose: 12.5 mg/kg/injection, schedule: Q01DX010 (sc), vehicle: Klucel (hydroxypropylcellulose) (HPC)
  T/C: 9 % of control
dose: 25.0 mg/kg/injection, schedule: Q01DX010 (sc), vehicle: Klucel (hydroxypropylcellulose) (HPC)
  T/C: 6 % of control and 15 % of control
dose: 37.5 mg/kg/injection, schedule: Q04DX003 (sc), vehicle: Klucel (hydroxypropylcellulose) (HPC)
  T/C: 23 % of control
dose: 50.0 mg/kg/injection, schedule: Q01DX010 (sc), vehicle: Klucel (hydroxypropylcellulose) (HPC)
  T/C: -25 % of control
[1]
  T/C: 13 % of control
[2]
  T/C: 8 % of control
[3]
  T/C: 8 % of control

## CCOC(=O)C(C)(C)Oc1ccc(Cl)cc1
dose: 300.0 mg/kg/injection, schedule: Q04DX003 (sc), vehicle: saline with Tween-80
  T/C: 73 % of control
dose: 600.0 mg/kg/injection, schedule: Q04DX003 (sc), vehicle: saline with Tween-80
  T/C: 97 % of control
dose: 1200.0 mg/kg/injection, schedule: Q04DX003 (sc), vehicle: saline with Tween-80
  T/C: 81 % of control

## COc1ccc2c(NCCCCCCCCNc3c4ccccc4nc4cc(OC)ccc34)c3ccccc3nc2c1
dose: 2.0 mg/kg/injection, schedule: Q04DX003 (sc), vehicle: suspension in saline
  T/C: 96 % of control
dose: 16.0 mg/kg/injection, schedule: Q04DX003 (sc), vehicle: suspension in saline
  T/C: 64 % of control

## CC(C)CC(=O)NC(C(=O)NC(C(=O)NC(CC(C)C)C(O)CC(=O)NC(C)C(=O)NC(CC(C)C)C(O)CC(=O)O)C(C)C)C(C)C (centres undefined)
[2]
  T/C: 70 % of control
[3]
  T/C: 93 % of control
[4]
  T/C: 66 % of control
[10]
  T/C: 51 % of control

## C/C=C/C=C/c1cc2cc3c(c(O)c2c(=O)[nH]1)C1(CC3)C(O)=c2c(=O)c3c(=O)cc(OC)c(=O)c=3c(=O)c2=C1O (centres undefined)
dose: 0.5 mg/kg/injection, schedule: Q01DX010 (sc), vehicle: DMSO
  T/C: 221 % of control
dose: 1.0 mg/kg/injection, schedule: Q01DX010 (sc), vehicle: DMSO
  T/C: 162 % of control
dose: 2.0 mg/kg/injection, schedule: Q01DX010 (sc), vehicle: DMSO
  T/C: 92 % of control and 104 % of control
dose: 4.0 mg/kg/injection, schedule: Q01DX010 (sc), vehicle: DMSO
  T/C: 103 % of control and 111 % of control
dose: 8.0 mg/kg/injection, schedule: Q01DX010 (sc), vehicle: DMSO
  T/C: 106 % of control
dose: 16.0 mg/kg/injection, schedule: Q01DX010 (sc), vehicle: DMSO
  T/C: 86 % of control

## O=C1NC(O)c2ccccc2O1 (centres undefined)
[5]
  T/C: 102 % of control
[6]
  T/C: 79 % of control
[7]
  T/C: 63 % of control
[8]
  T/C: 86 % of control

## CC(=O)OCC1OC(n2cc(CBr)nn2)C(OC(C)=O)C(OC(C)=O)C1OC(C)=O (centres undefined)
dose: 50.0 mg/kg/injection, schedule: Q01DX010 (sc), vehicle: saline with Tween-80
  T/C: 177 % of control
dose: 100.0 mg/kg/injection, schedule: Q01DX010 (sc), vehicle: saline with Tween-80
  T/C: 101 % of control
dose: 400.0 mg/kg/injection, schedule: Q01DX010 (sc), vehicle: saline with Tween-80
  T/C: 46 % of control

## N=C(N)SCc1c2ccccc2c(CSC(=N)N)c2ccccc12
dose: 100.0 mg/kg/injection, schedule: Q04DX003 (sc), vehicle: suspension in saline
  T/C: 104 % of control
dose: 400.0 mg/kg/injection, schedule: Q04DX003 (sc), vehicle: suspension in saline
  T/C: 93 % of control
dose: 800.0 mg/kg/injection, schedule: Q04DX003 (sc), vehicle: suspension in saline
  T/C: 96 % of control

## Cc1ccc(C2NC(=S)N3C(c4ccc(C)cc4)NC(=S)N23)cc1 (centres undefined)
[3]
  T/C: 64 % of control
[4]
  T/C: 66 % of control
[10]
  T/C: 80 % of control
[11]
  T/C: 65 % of control

## COc1cccc2c1C(=O)c1c(O)c3c(c(O)c1C2=O)C[C@@](O)(C(=O)CO)C[C@@H]3OC1CC(N)CC(C)O1 (some centres undefined)
dose: 1.5 mg/kg/injection, schedule: Q01DX010 (sc), vehicle: water
  T/C: 23 % of control

## CN1CCN(c2ccc3nc(-c4ccc5nc(-c6ccc(O)cc6)[nH]c5c4)[nH]c3c2)CC1
[9]
  T/C: 73 % of control
dose: 400.0 mg/kg/injection, schedule: Q04DX003 (sc), vehicle: saline
  T/C: 73 % of control

## CN(N=O)C(=O)N[C@@H](C=O)[C@@H](O)[C@H](O)[C@H](O)CO
dose: 75.0 mg/kg/injection, schedule: Q04DX003 (sc), vehicle: other
  T/C: 32 % of control
dose: 75.0 mg/kg/injection, schedule: Q04DX003 (sc), vehicle: saline
  T/C: 39 % of control
dose: 150.0 mg/kg/injection, schedule: Q04DX003 (sc), vehicle: other
  T/C: 10 % of control
dose: 150.0 mg/kg/injection, schedule: Q04DX003 (sc), vehicle: saline
  T/C: 22 % of control
dose: 300.0 mg/kg/injection, schedule: Q04DX003 (sc), vehicle: saline
  T/C: -56 % of control

## O=C1C=C[C@H](O)[C@@]2(CO)O[C@@H]12
dose: 6.25 mg/kg/injection, schedule: Q04DX003 (sc), vehicle: saline with Tween-80
  T/C: 108 % of control
dose: 12.5 mg/kg/injection, schedule: Q04DX003 (sc), vehicle: saline with Tween-80
  T/C: 77 % of control
